pIC50: −log10 of the molar value. Several values for one entry are separate records, joined by “and”; a condition that tells them apart may be missing. Equal entries are not always repeated. Entries after “also recorded” stand apart in the source; their conditions may differ.
What was measured:
GPR73 (PK1 receptor) = target: T1, GPR73 (PK1 receptor) (Homo sapiens, UniProt Q8TCW9); experiment: PK1 functional assay: screening for PK1 antagonists on the FLIPR (calcium dye) in HEK 293 GPR73 expressing cells; type: cell-based; conditions: for pIC50 / inhibition at 10 µM / Ca^2+ Mobilization % Inh @10 μM: HEK 293 GPR73 (PK1 receptor) expressing cells, FLIPR; for pIC50: PK1 ligand at EC50, read-out: Ca^2+ Mobilization IC50; for inhibition at 10 µM: HEK293, 10 μM compound, read-out: Ca^2+ Mobilization % Inh @10 μM; for Ca^2+ Mobilization % Inh @10 μM: 10 μM compound
T1 construct: expressed in transfected cells; host or cells: HEK 293
Description: At a time of 24 h prior to running the assay, in cell culture media (DMEM containing high Glucose and L-glutamine, 10% FBS, 1% Pen/Streptomycin, 1% Sodium Pyruvate, 20 mM HEPES, Zeocin 200 mg/L), 100 μL of 1.3*10^6/ml HEK 293 GPR73 (PK1 receptor) expressing cells were plated in a 96 well poly-d-lysine coated plate (Costar), and incubated at 37° C. and 5% CO2. On the day in which the assay was run, the media was removed and 200 μL of 5× Calcium Plus Dye (Molecular Devices) which was previously resuspended with 200 mL of assay buffer [HBSS w/Ca^2+ and Mg^2+ w/o phenol red, 20 mM HEPES, 0.1% BSA, 10 mL probenecid (710 mg probenecid in 5 mL of 1N NaOH, to which was then added 5 mL HBSS containing 20 mM HEPES)] was added to each well of the 96-well plate. The plate was incubated at 37° C. and 5% CO2 for 30 min in dark. The plate was removed and allowed to reach RT for 15 min in the dark. The assay was then run on the FLIPR. […] Baseline is described as the amount of relative fluorescence read when buffer alone is added to cells. Baseline was subtracted from all wells. Percent of control was calculated as follows: (Baseline subtracted well value is divided by baseline subtracted max value)*100. Percent inhibition is 100 minus the percent of control value.
IC50 values were calculated using GraphPad Prism.
Table 2 includes data generated from the PK1 functional assay described in Example 2.

rat ileum = experiment: Contractility of isolated rat GI segments ex vivo (myobath organ bath), response to PK1
[1] = target: T2, basolateral Na+-K+-2Cl- co-transporter (Rattus norvegicus, UniProt E9PTX9); conditions: bumetanide 500 μM
T2 sequence (E9PTX9 1-1203): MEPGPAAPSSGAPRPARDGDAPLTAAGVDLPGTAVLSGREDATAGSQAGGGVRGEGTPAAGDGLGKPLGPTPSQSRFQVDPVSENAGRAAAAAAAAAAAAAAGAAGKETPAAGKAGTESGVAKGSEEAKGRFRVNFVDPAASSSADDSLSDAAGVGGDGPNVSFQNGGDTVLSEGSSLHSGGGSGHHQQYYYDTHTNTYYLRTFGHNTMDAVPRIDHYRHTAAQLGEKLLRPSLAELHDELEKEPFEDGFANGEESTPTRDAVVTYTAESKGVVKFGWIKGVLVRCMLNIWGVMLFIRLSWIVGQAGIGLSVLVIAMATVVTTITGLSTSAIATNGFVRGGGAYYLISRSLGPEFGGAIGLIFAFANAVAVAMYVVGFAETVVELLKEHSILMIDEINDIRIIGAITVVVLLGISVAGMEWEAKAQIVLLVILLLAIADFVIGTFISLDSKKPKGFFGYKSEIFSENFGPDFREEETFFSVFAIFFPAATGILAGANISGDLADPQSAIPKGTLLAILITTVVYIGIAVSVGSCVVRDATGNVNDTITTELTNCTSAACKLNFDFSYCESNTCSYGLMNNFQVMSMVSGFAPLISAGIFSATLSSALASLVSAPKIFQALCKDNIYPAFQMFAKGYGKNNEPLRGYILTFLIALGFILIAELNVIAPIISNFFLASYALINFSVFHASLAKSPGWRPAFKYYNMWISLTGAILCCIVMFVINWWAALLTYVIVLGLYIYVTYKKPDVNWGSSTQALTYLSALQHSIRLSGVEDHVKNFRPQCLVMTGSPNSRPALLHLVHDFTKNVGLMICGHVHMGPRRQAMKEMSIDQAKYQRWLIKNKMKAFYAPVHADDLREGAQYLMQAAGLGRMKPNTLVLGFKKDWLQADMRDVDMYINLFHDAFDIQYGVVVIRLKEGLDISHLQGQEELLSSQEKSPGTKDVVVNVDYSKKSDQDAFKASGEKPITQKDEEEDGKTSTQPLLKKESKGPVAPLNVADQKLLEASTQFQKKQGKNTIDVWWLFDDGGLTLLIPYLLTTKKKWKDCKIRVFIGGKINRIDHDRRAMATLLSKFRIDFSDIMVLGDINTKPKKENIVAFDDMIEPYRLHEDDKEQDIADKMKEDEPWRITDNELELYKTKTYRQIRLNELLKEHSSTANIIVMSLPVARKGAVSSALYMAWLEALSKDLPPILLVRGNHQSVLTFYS
Description: Methodology. The basic methodology for Using-type ion flux chambers used in these studies was the same as that described in detail above with the following modifications to the experimental protocol. To determine the mechanism of action of the pro-secretory action of PK1 on the epithelium, three separate approaches were utilized to abolish electrogenic chloride ion or bicarbonate ion transport across the epithelium. […] The second approach involved replacement of all chloride ions in the physiological buffer solution used to maintain living tissues in the Using chambers, thus substituting a chloride-free KRB solution by an equimolar substitution of isethionate and acetate salts for the chloride salts listed in the standard KRB recipe above. The third approach involved replacement of all bicarbonate ions in the physiological buffer solution, thus substituting a bicarbonate-free KRB solution by an equimolar substitution of Piperazine-N,N′-bis(2-ethanesulfonic acid) (PIPES) for the bicarbonate salt, and addition of 1 mM acetazolamide, a blocker of intracellular carbonic anhydrase, to prevent bicarbonate production by the enterocyte.

T1 sequence (Q8TCW9 whole entry, species assumed): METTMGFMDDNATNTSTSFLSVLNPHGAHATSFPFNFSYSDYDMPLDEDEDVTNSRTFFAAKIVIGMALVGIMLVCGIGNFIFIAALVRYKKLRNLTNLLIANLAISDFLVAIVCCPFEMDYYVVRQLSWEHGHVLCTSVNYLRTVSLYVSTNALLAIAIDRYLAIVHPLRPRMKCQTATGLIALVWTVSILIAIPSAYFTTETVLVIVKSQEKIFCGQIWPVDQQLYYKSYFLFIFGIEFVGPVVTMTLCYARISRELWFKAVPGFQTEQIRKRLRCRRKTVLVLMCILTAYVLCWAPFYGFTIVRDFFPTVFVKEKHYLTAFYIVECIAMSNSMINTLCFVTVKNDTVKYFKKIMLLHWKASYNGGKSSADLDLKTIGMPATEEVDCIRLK

Work on `N=C(N)NCCNc1nc(=O)n(Cc2ccc(F)cc2)c(=O)n1Cc1ccc([N+](=O)[O-])cc1` [Cpd 87] yielded a pIC50 (GPR73 (PK1 receptor)) of under 5.00.
`COc1ccc(Cn2c(NCCNC(=N)N)nc(=O)n(Cc3ccccc3OC)c2=O)cc1` [Cpd 21] showed a pIC50 (GPR73 (PK1 receptor)) of under 5.00.
In the case of `CN1[C@@H]2CC[C@H]1C[C@@H](OC(=O)C(CO)c1ccccc1)C2` (stereo partly shown) [Atropine, reference compound], the “effect on the early component of the PK1-evoked contractile response” value (rat ileum) was “attenuate”.
Compound `COc1ccc(Cn2c(NCCNC(=N)N)nc(=O)n(CC(C)(C)C)c2=O)cc1` [Cpd 123] has a pIC50 (GPR73 (PK1 receptor)) of under 5.00.
`COc1ccc(Cn2c(N[C@H](C)[C@@H](C)NC(=N)N)nc(=O)n(Cc3ccc(F)cc3)c2=O)cc1` [Cpd 137] gave an inhibition at 10 µM (GPR73 (PK1 receptor)) of 98%.
In the case of “N-{2-[5-Benzyl-1-(4-methoxy-benzyl)-4,6-dioxo-1,4,5,6-tetrahydro-[1,3,5]triazin-2-ylamino]-ethyl}-oxyguanidine [Cpd 27]”, the “Ca^2+ Mobilization % Inh @10 μM” value (GPR73 (PK1 receptor)) was 55%.
For “N-Benzoyl-N-{2-[5-(4-fluoro-benzyl)-1-(4-methoxy-benzyl)-4,6-dioxo-1,4,5,6-tetrahydro-[1,3,5]triazin-2-ylamino]-ethyl}-guanidine [Cpd 134]”, the “Ca^2+ Mobilization % Inh @10 μM” value (GPR73 (PK1 receptor)) was 97, 97% and the pIC50 (GPR73 (PK1 receptor)) was 7.72 and 7.55.
`N=C(N)NCCNc1nc(=O)n(Cc2ccccc2)c(=O)n1Cc1ccncc1` [Cpd 11] was tested, and the pIC50 (GPR73 (PK1 receptor)) was under 5.00.
`COc1ccc(Cn2c(NCCN(C(=N)N)c3ccccn3)nc(=O)n(Cc3ccc(F)cc3)c2=O)cc1` [Cpd 104, N-{2-[5-(4-Fluoro-benzyl)-1-(4-methoxy-benzyl)-4,6-dioxo-1,4,5,6-tetrahydro-[1,3,5]triazin-2-ylamino]-ethyl}-N-pyridin-2-yl-guanidine] was tested, and the “Ca^2+ Mobilization % Inh @10 μM” value (GPR73 (PK1 receptor); 10 µM) was 99%.
“N-{2-[5-(3,4-Dichloro-benzyl)-1-(4-methoxy-benzyl)-4,6-dioxo-1,4,5,6-tetrahydro-[1,3,5]triazin-2-ylamino]-ethyl}-N-isopropyl-guanidine [Cpd 58]” was tested, and the “Ca^2+ Mobilization % Inh @10 μM” value (GPR73 (PK1 receptor); 10 µM) was 102% and 99%.
For `COc1ccc(Cn2c(NCCONC(=N)N)nc(=O)n(Cc3ccccc3)c2=O)cc1` [Cpd 10], the inhibition at 10 µM (GPR73 (PK1 receptor)) was 33% and the pIC50 (GPR73 (PK1 receptor)) was under 5.00.
Compound `COc1ccc(Cn2c(N[C@@H](C)[C@H](C)NC(=N)N)nc(=O)n(Cc3ccc(F)cc3)c2=O)cc1` [Cpd 136] has a pIC50 (GPR73 (PK1 receptor)) of under 5.00.
In the case of `COc1ccc(Cn2c(N[C@H]3CCCC[C@@H]3NC(=N)N)nc(=O)n(Cc3ccc(Cl)c(Cl)c3)c2=O)cc1` [JNJ 28611921], the “activity at the PK1 receptor” value (GPR73 (PK1 receptor); cellular assay) was “lack significant activity; also recorded: not active”.
Work on `COc1ccc(Cn2c(NCCNC(=N)N)nc(=O)n(Cc3cccc(N)c3)c2=O)cc1` [Cpd 96] yielded a pIC50 (GPR73 (PK1 receptor)) of under 5.00.
For `CCCCNc1cc(C(=O)O)cc(S(N)(=O)=O)c1Oc1ccccc1` [bumetanide, Bumetanide], the “effect on baseline G” value [1] was “did not significantly change”, the “change in baseline Isc after addition to the serosal bathing solution” value ([1]; n=5, not significantly different from DMSO vehicle) was −7.1+/−8.6 μA/cm^2 and the “attenuation of the PK1-evoked increase in Isc” value ([1]; serosal) was over 90%.
`COc1ccc(Cn2c(NCCNC(=N)N)nc(=O)n(Cc3cccc(C#N)c3)c2=O)cc1` [Cpd 98] was tested, and the pIC50 (GPR73 (PK1 receptor)) was under 5.00.
“N-{2-[5-(4-Fluoro-benzyl)-1-(4-methoxy-benzyl)-4,6-dioxo-1,4,5,6-tetrahydro-[1,3,5]triazin-2-ylamino]-ethyl}-N-(4-fluoro-phenyl)-guanidine [Cpd 119]” was tested, and the “Ca^2+ Mobilization % Inh @10 μM” value (GPR73 (PK1 receptor); 10 µM) was 102% and 99% and the pIC50 (GPR73 (PK1 receptor)) was 8.22 and 7.92.
In the case of `N=C(N)NCCNc1nc(=O)n(Cc2ccccc2)c(=O)n1Cc1ccc(F)cc1` [Cpd 1], the pIC50 (GPR73 (PK1 receptor)) was under 5.00.
For “N-{2-[5-(4-Fluoro-benzyl)-1-(4-methoxy-benzyl)-4,6-dioxo-1,4,5,6-tetrahydro-[1,3,5]triazin-2-ylamino]-ethyl}-N-amino-guanidine [Cpd 93]”, the “Ca^2+ Mobilization % Inh @10 μM” value (GPR73 (PK1 receptor)) was 92% and the pIC50 (GPR73 (PK1 receptor)) was 6.64.
For “N-{2-[5-(4-Fluoro-benzyl)-1-(4-methoxy-benzyl)-4,6-dioxo-1,4,5,6-tetrahydro-[1,3,5]triazin-2-ylamino]-ethyl}-N-(2-fluoro-phenyl)-guanidine [Cpd 118]”, the “Ca^2+ Mobilization % Inh @10 μM” value (GPR73 (PK1 receptor); 10 µM) was 98% and 102% and the pIC50 (GPR73 (PK1 receptor)) was 8.22.
`COc1ccc(Cn2c(NCCNC(=N)N)nc(=O)n(Cc3ccc(C(=O)O)cc3)c2=O)cc1` [Cpd 101, 4-[4-(2-Guanidino-ethylamino)-3-(4-methoxy-benzyl)-2,6-dioxo-3,6-dihydro-2H-[1,3,5]triazin-1-ylmethyl]-benzoic acid] gave a pIC50 (GPR73 (PK1 receptor)) of under 5.00.
With `COc1ccc(Cn2c(NCCNC(=N)NCCc3ccccc3)nc(=O)n(Cc3ccc(Cl)c(Cl)c3)c2=O)cc1` [Cpd 65] the “Ca^2+ Mobilization % Inh @10 μM” value (GPR73 (PK1 receptor)) was 88%.
Compound `COc1ccc(Cn2c(N[C@H]3CCCC[C@@H]3NC(=N)N)nc(=O)n(Cc3ccc(Cl)c(Cl)c3)c2=O)cc1` [Cpd 43] has a pIC50 (GPR73 (PK1 receptor)) of under 5.00.
`COc1ccc(Cn2c(=O)nc(NCCNC(=N)N)n(Cc3ccc(O)cc3)c2=O)cc1` [Cpd 143, N-{2-[1-(4-Hydroxy-benzyl)-5-(4-methoxy-benzyl)-4,6-dioxo-1,4,5,6-tetrahydro-[1,3,5]triazin-2-ylamino]-ethyl}-guanidine] showed an inhibition at 10 µM (GPR73 (PK1 receptor)) of 101%.
Compound `N=C(N)NCCNc1nc(=O)n(Cc2ccccc2)c(=O)n1Cc1cccc(C(F)(F)F)c1` [Cpd 7] has a pIC50 (GPR73 (PK1 receptor)) of under 5.00.
In the case of `NC1=N[C@H](O)[C@H]2[C@H]3O[C@]4(O)O[C@@H]([C@@H](O)[C@@]2(N1)[C@@H]4O)[C@]3(O)CO` [Tetrodotoxin, reference compound], the “effect on the early component of the PK1-evoked contractile response” value (rat ileum) was “attenuate”.
For `COc1ccc(Cn2c(NCCNC(=N)NCCc3ccccn3)nc(=O)n(Cc3ccc(F)cc3)c2=O)cc1` [Cpd 105], the “Ca^2+ Mobilization % Inh @10 μM” value (GPR73 (PK1 receptor)) was 100%.

— patent US8188081B2, “Methods of treating inflammation using prokineticin 1 receptor antagonists” (Janssen Pharmaceutica, NV, priority 2005, dated 2012)
